Experimental data reported in PubChem BioAssay (NCI).
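Dose response: 5 concentrations. Exposure: 48 h. Format: 96-well plates. Endpoint: linear interpolation; highest concentration if not reached. The concentration for 50% growth inhibition is given as GI50. TGI: total growth inhibition.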

Legend:
Test in all cases: NCI-60 cell line screen, 48 h
CAKI-1 renal = tested on: CAKI-1 renal
SK-MEL-5 melanoma = tested on: SK-MEL-5 melanoma
COLO 205 colon = tested on: COLO 205 colon
SK-OV-3 ovarian = tested on: SK-OV-3 ovarian
HCT-116 colon = tested on: HCT-116 colon
MDA-MB-468 breast = tested on: MDA-MB-468 breast
RXF 393 renal = tested on: RXF 393 renal
U251 CNS = tested on: U251 CNS
SF-295 CNS = tested on: SF-295 CNS
T-47D breast = tested on: T-47D breast
KM12 colon = tested on: KM12 colon
SR leukemia = tested on: SR leukemia
DU-145 prostate = tested on: DU-145 prostate
OVCAR-8 ovarian = tested on: OVCAR-8 ovarian
MOLT-4 leukemia = tested on: MOLT-4 leukemia
LOX IMVI melanoma = tested on: LOX IMVI melanoma
786-0 renal = tested on: 786-0 renal
ACHN renal = tested on: ACHN renal
SN12C renal = tested on: SN12C renal
OVCAR-5 ovarian = tested on: OVCAR-5 ovarian
SNB-75 CNS = tested on: SNB-75 CNS
NCI-H226 lung = tested on: NCI-H226 lung
IGROV1 ovarian = tested on: IGROV1 ovarian
EKVX NSCLC = tested on: EKVX NSCLC
NCI-H460 lung = tested on: NCI-H460 lung
HOP-92 NSCLC = tested on: HOP-92 NSCLC
MDA-MB-435 = tested on: MDA-MB-435
HCT-15 colon = tested on: HCT-15 colon
MALME-3M melanoma = tested on: MALME-3M melanoma

SMILES: CSc1ccccc1NC(=O)c1ccc2nn(/C(C#N)=C/c3ccccn3)nc2c1
- GI50 (CAKI-1 renal): 2780 nM
- TGI (CAKI-1 renal): 10.8 µM
- GI50 (SK-MEL-5 melanoma): 4.99 µM
- TGI (SK-MEL-5 melanoma): 17.2 µM
- GI50 (COLO 205 colon): 1960 nM
- TGI (COLO 205 colon): 4.25 µM
- GI50 (SK-OV-3 ovarian): 16 µM
- TGI (SK-OV-3 ovarian): 30.1 µM
- GI50 (HCT-116 colon): 2140 nM
- TGI (HCT-116 colon): 4.72 µM
- GI50 (MDA-MB-468 breast): 1840 nM
- TGI (MDA-MB-468 breast): 4.2 µM
- GI50 (RXF 393 renal): 1780 nM
- TGI (RXF 393 renal): 4.16 µM
- GI50 (U251 CNS): 4.35 µM
- TGI (U251 CNS): 15.7 µM
- GI50 (SF-295 CNS): 13.8 µM
- TGI (SF-295 CNS): 27.3 µM
- GI50 (T-47D breast): 3.5 µM
- TGI (T-47D breast): 16.6 µM
- GI50 (KM12 colon): 7.64 µM
- TGI (KM12 colon): 24.2 µM
- GI50 (SR leukemia): 2350 nM
- TGI (SR leukemia): 7.96 µM
- GI50 (DU-145 prostate): 4.38 µM
- TGI (DU-145 prostate): 15 µM
- GI50 (OVCAR-8 ovarian): 3.14 µM
- TGI (OVCAR-8 ovarian): 11.7 µM
- GI50 (MOLT-4 leukemia): 2680 nM
- TGI (MOLT-4 leukemia): 7.74 µM
- GI50 (LOX IMVI melanoma): 1720 nM
- TGI (LOX IMVI melanoma): 3.28 µM
- GI50 (786-0 renal): 3.68 µM
- TGI (786-0 renal): 12.4 µM
- GI50 (ACHN renal): 2100 nM
- TGI (ACHN renal): 4.42 µM
- GI50 (SN12C renal): 4.53 µM
- TGI (SN12C renal): 16.1 µM
- GI50 (OVCAR-5 ovarian): 4.69 µM
- TGI (OVCAR-5 ovarian): 17.5 µM
- GI50 (SNB-75 CNS): 5.8 µM
- TGI (SNB-75 CNS): 20.6 µM
- GI50 (NCI-H226 lung): 13.5 µM
- TGI (NCI-H226 lung): 28.5 µM
- GI50 (IGROV1 ovarian): 4.52 µM
- TGI (IGROV1 ovarian): 15.9 µM
- GI50 (EKVX NSCLC): 9.18 µM
- TGI (EKVX NSCLC): 21.6 µM
- GI50 (NCI-H460 lung): 3.16 µM
- TGI (NCI-H460 lung): 11.6 µM
- GI50 (HOP-92 NSCLC): 6.41 µM
- TGI (HOP-92 NSCLC): 23.9 µM
- GI50 (MDA-MB-435): 2670 nM
- TGI (MDA-MB-435): 9.09 µM
- GI50 (HCT-15 colon): 1730 nM
- TGI (HCT-15 colon): 3.53 µM
- GI50 (MALME-3M melanoma): 2000 nM
